This is an account of results in ChEMBL document CHEMBL1201862, “PubChem BioAssay data set” (2004).

What all share (assay): growth of human tumour cells (NCI), 48 h
For assay [1], the system named is CCRF-CEM.
For assay [2], the system named is MDA-MB-231.
The subject of assay [3] is SN12C.
For assay [4], the system named is MOLT-4.
For assay [5], the system named is 786-0.
Assay [6] has as its system HCT-15.
Assay [7] deals with HCC 2998.
In assay [8] the test system is TK-10.
The subject of assay [9] is Hs-578T.
In assay [10] the test system is COLO 205.
The subject of assay [11] is HCT-116.
The subject of assay [12] is OVCAR-5.
Assay [13] relates to OVCAR-3.
Assay [14] concerns SK-MEL-28.
In assay [15] the test system is SF-268.
Assay [16] deals with LOX IMVI.
The test system of assay [17] is UACC-62.
Assay [18] concerns HT-29.
Assay [19] concerns U-251.

SMILES strings stand for the structures. “And” between values parts separate entries of the source, which are not always exact repeats. Equal entries are not always repeated.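 48-hour exposure; five concentrations; linearly interpolated endpoints. GI50 is the concentration that inhibits growth by half.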 The source made the active and inactive calls. Cut-off read from the data, not from the text of the source: active = GI50 up to about 1.1 µM and inactive = higher.

In the case of `Cc1nc2cc(Cl)c(N)cc2[nH]1`, the GI50 in assay [1] was > 100 µM (inactive); in [2], > 100 µM (inactive); in [3], > 100 µM (inactive); in assay [4] it was > 100 µM (inactive); in assay [5], > 100 µM (inactive); in assay [6], over 100 µM. For the same compound, the GI50 in assay [7] is > 10 µM (inactive); in assay [8], > 100 µM (inactive); in [9] it was > 100 µM (inactive); in assay [10], > 100 µM (inactive); in assay [11], > 100 µM (inactive); in [12], > 100 µM (inactive). Moreover, the GI50 in [13], in assay [14], in assay [15], in assay [16], in assay [17] and in assay [18] was > 100 µM (inactive) in each case. Besides, in [19], the GI50 was > 100 µM (inactive).
As to `CCNC(=O)CCC(C)[C@H]1CCC2C3C(C[C@H](OC(C)=O)[C@@]21C)[C@@]1(C)CCC2(C[C@H]1C[C@H]3OC(C)=O)OOC1(CCC(C)CC1)OO2` (some centres not stated), the GI50 in assay [1] was 710 nM (active) and 1.24 µM (inactive); in assay [2], 2.1 µM (inactive); in [3], 2.52 µM (inactive) and 1.83 µM (inactive); in assay [5], 2.38 µM (inactive) and 1.58 µM (inactive); in [6], 1.99 µM and 2 µM; in [7], 1.75 µM (inactive) and 3.1 µM (inactive). In addition, the GI50 in [8] was 2.3 µM (inactive) and 2.43 µM (inactive); in assay [9], 2.62 µM (inactive) and 2.68 µM (inactive); in assay [10] it was 1.53 µM (inactive) and 1.65 µM (inactive); in assay [11] it was 1.94 µM (inactive) and 1.79 µM (inactive); in assay [12], 2.7 µM (inactive) and 1.82 µM (inactive); in assay [13], 1.55 µM (inactive) and 1.59 µM (inactive). The GI50 is 2.9 µM (inactive) and 3.47 µM (inactive) in assay [14]; 1.83 µM (inactive) and 2.05 µM (inactive) in assay [16]; 1.69 µM (inactive) and 2.26 µM (inactive) in [17]; 2.09 µM (inactive) and 1.6 µM (inactive) in [19].
Regarding `COc1ccc(OC)c(C[P+](c2ccccc2)(c2ccccc2)c2ccccc2)c1`, the GI50 in [1] was 2.56 µM (inactive); in assay [2] it was 3.27 µM (inactive); in assay [3], 5.89 µM (inactive); in assay [4], 3.42 µM (inactive); in assay [5], 3.38 µM (inactive); in [6], 18.5 µM. The GI50 in assay [7] was 3.54 µM (inactive); in [8], 2.7 µM (inactive); in assay [9], 2.01 µM (inactive); in assay [10], 1.1 µM (active); in assay [11], 1.02 µM (active); in [12], 5.27 µM (inactive). Also, the GI50 was 2.54 µM (inactive) in [13]; 3.26 µM (inactive) in assay [14]; 3.72 µM (inactive) in [15]; 0.968 µM (active) in assay [16]; 0.971 µM (active) in assay [17]; 0.45 µM (active) in [18].
On to `CCCCc1ccc(Nc2nc(OC)c3ncn(C4CC(O)C(CO)O4)c3n2)cc1` (configuration not stated), for which the GI50 in assay [1] is 17.5 µM (inactive); in assay [2] it was 17.7 µM (inactive); in assay [3], 13.3 µM (inactive); in assay [4], 16.9 µM (inactive); in assay [5] it was 16.4 µM (inactive); in assay [6] it was 13.9 µM. Moreover, the GI50 was 6.44 µM (inactive) in assay [7]; 23.4 µM (inactive) in assay [8]; 18.4 µM (inactive) in assay [9]; 14.2 µM (inactive) in assay [10]; 15.8 µM (inactive) in assay [11]; 35.4 µM (inactive) in [12]. For the same compound, the GI50 in [13] is 22.4 µM (inactive); in assay [15] it was 16.6 µM (inactive); in assay [16] it was 12.1 µM (inactive); in assay [17], 17 µM (inactive); in [18], 19.2 µM (inactive); in assay [19], 20.7 µM (inactive).
As to `COc1cc(O)c2c(=O)c(OC)c(-c3ccc4c(c3)OCO4)oc2c1`, the GI50 in assay [1] was > 100 µM (inactive); in [2] it was > 37.3 µM (inactive); in [3], > 100 µM (inactive); in [4], > 68.9 µM (inactive); in assay [5], 15.3 µM (inactive); in [6], over 100 µM. The GI50 in [7] was > 100 µM (inactive); in assay [8], 36.7 µM (inactive); in assay [9], 21.6 µM (inactive); in assay [10] it was > 100 µM (inactive); in assay [11] it was > 44.4 µM (inactive); in assay [12] it was > 100 µM (inactive). Besides, the GI50 in assay [14] was > 100 µM (inactive); in assay [15], 4.31 µM (inactive); in assay [16] it was > 23.2 µM (inactive); in [17], 78.9 µM (inactive); in assay [18], > 100 µM (inactive); in [19] it was 9.27 µM (inactive).
Consider `Ic1ccc2c(c1)N(c1ccccc1)c1cc([N-]c3ccc4nc5ccc(I)cc5[n+](-c5ccccc5)c4c3)ccc1N2`, for which the GI50 in assay [1] was 15 µM (inactive); in assay [2] it was 23.7 µM (inactive); in assay [3], > 100 µM (inactive); in assay [4], 68.9 µM (inactive); in [5] it was > 100 µM (inactive); in [6], over 100 µM. For the same compound, the GI50 in assay [7] was 67.1 µM (inactive); in assay [8] it was > 100 µM (inactive); in assay [9], > 100 µM (inactive); in [10], 16.2 µM (inactive); in [11], 35 µM (inactive); in assay [12], > 100 µM (inactive). For the same compound, the GI50 was 2.92 µM (inactive) in [13]; > 100 µM (inactive) in assay [14]; > 100 µM (inactive) in [15]; 69.3 µM (inactive) in assay [17]; 14.8 µM (inactive) in assay [18]; 45.6 µM (inactive) in assay [19].
For `CCOC(=O)C(NC(=O)c1cccc(Cl)c1)(N1CCN(c2cc3c(cc2F)c(=O)c(C(=O)O)cn3C2CC2)CC1)C(F)(F)F` (configuration not stated), the GI50 in assay [1] is 2.67 µM (inactive); in [2] it was 15.6 µM (inactive); in [3], 26.9 µM (inactive); in [4], 3.71 µM (inactive); in assay [5], 14.6 µM (inactive); in assay [7] it was 19.4 µM (inactive). Moreover, the GI50 in assay [9] was 20.7 µM (inactive); in [10] it was 16.6 µM (inactive); in assay [11], 12.7 µM (inactive); in [12], 16.7 µM (inactive); in assay [13] it was 10.7 µM (inactive); in [14], 16.5 µM (inactive). Besides, the GI50 is 12.5 µM (inactive) in [15], 15.3 µM (inactive) in [17] and 5.24 µM (inactive) in assay [19].
Turning to `O=C(Cc1ccc2ccccc2c1)NCc1ccc(C(=O)NCCc2ccccc2)cc1`, the GI50 in assay [1] was 20.3 µM (inactive); in assay [2], > 100 µM (inactive); in assay [3] it was > 100 µM (inactive); in assay [5] it was > 100 µM (inactive); in assay [6] it was over 100 µM; in assay [7], > 100 µM (inactive). Besides, the GI50 in [8], in assay [9], in assay [10], in [11], in [12] and in assay [13] was > 100 µM (inactive) in each case. In addition, the GI50 in assay [14] was > 100 µM (inactive); in assay [15], > 100 µM (inactive); in [16] it was > 100 µM (inactive); in assay [17], > 100 µM (inactive); in assay [18], 94.4 µM (inactive); in assay [19] it was > 100 µM (inactive).
In the case of `Cn1nc2ccc([N+](=O)[O-])cc2[n+]1[O-]`, the GI50 is > 100 µM (inactive) in assay [1]; > 100 µM (inactive) in assay [2]; 22.4 µM (inactive) in assay [3]; > 100 µM (inactive) in assay [4]; > 100 µM (inactive) in assay [5]; over 100 µM in [6]. Besides, the GI50 in assay [7], in assay [8], in [9], in [10], in assay [11] and in assay [12] was > 100 µM (inactive) in each case. The GI50 in assay [13], in [17], in assay [18] and in assay [19] was > 100 µM (inactive) throughout.
Turning to `CCN1C(=O)C(=C/C=C/c2ccc(OC)cc2)C(=O)N(CC)C1=S`, the GI50 is 20.6 µM (inactive) in assay [1]; 19.8 µM (inactive) in assay [2]; 18.2 µM (inactive) in assay [3]; 25.7 µM (inactive) in [4]; 17.6 µM (inactive) in [5]; 17.5 µM in assay [6]. Further, the GI50 in assay [7] was 53.2 µM (inactive); in [8], 17.5 µM (inactive); in [9], 15.7 µM (inactive); in [10] it was 18.5 µM (inactive); in [11], 17.8 µM (inactive); in assay [12], > 100 µM (inactive). Also, the GI50 in assay [13] was 16.6 µM (inactive); in [15], 24.6 µM (inactive); in assay [16], 17.3 µM (inactive); in assay [17], 16.7 µM (inactive); in [18], 22.6 µM (inactive); in assay [19], 18.9 µM (inactive).
Regarding `CN(Cc1cnc2nc(N)nc(N)c2n1)c1ccc(C(=O)NC(CCS(=O)(=O)O)C(=O)O)cc1` (configuration not stated), the GI50 is 0.0312 µM (active) in assay [1]; > 100 µM (inactive) in assay [2]; 4.57 µM (inactive) in assay [3]; 0.593 µM (active) in assay [4]; 0.132 µM (active) in [5]; 0.25 µM in assay [6]. Moreover, the GI50 in [7] was 0.916 µM (active); in [8], > 100 µM (inactive); in assay [9] it was > 100 µM (inactive); in assay [10], > 72.3 µM (inactive); in assay [11] it was 0.0745 µM (active); in [12] it was 0.144 µM (active). The GI50 in assay [13] is 3.46 µM (inactive); in assay [14], > 100 µM (inactive); in assay [15] it was 0.465 µM (active); in [16], 0.103 µM (active); in [17] it was 0.508 µM (active); in assay [18], 4.02 µM (inactive).
